The text below walks through data of ChEMBL document CHEMBL1152786, “Designed DNA probes from the neocarzinostatin family: impact of glycosyl linkage stereochemistry on bulge base binding” (Bioorg Med Chem, 2009).

By Kd is commonly meant the equilibrium constant for the complex coming apart. High values mean weaker binding, low ones tighter binding.

Assay [1] in a line: Binding affinity to HT3AT sequence of bulge DNA by fluorescence quenching.
Assay [2] in a line: Binding affinity to DA12:BA14 sequence of bulge DNA by fluorescence quenching.
Assay [3] is described as follows: Binding affinity to HT3AGTT sequence of bulge DNA by fluorescence quenching.
Assay [4] is described as follows: Binding affinity to HT3AGT sequence of bulge DNA by fluorescence quenching.
Assay [5] in a line: Binding affinity to HT3AGCTT sequence of bulge DNA by fluorescence quenching.
A short description of assay [6]: Binding affinity to HT3AGTA sequence of bulge DNA by fluorescence quenching.
The target of assay [7] is HT4AGTT bulged DNA. Nature of the assay: Binding affinity to HT4AGTT sequence of bulge DNA by fluorescence quenching.
Assay [8] addresses Nucleic Acid. Nature of the assay: Binding affinity to DA12:DAc12 oligomer sequence of bulge DNA by fluorescence quenching. The class given is nucleic-acid assay.

Turning to `CN[C@H]1[C@H](O[C@@H]2c3cc4ccccc4cc3[C@@H]3[C@H]2C=C[C@@]32C(=O)C=Cc3ccc(OC)cc32)O[C@H](C)[C@H](O)[C@@H]1O`, the Kd in assay [1] amounted to 9200 nM; in assay [2] it was 430 nM; in assay [3], 1600 nM; in assay [4], 5500 nM; in assay [5], 1950 nM; in assay [6] it was 440 nM. Binding in assay [7] was characterised by a dissociation constant (Kd) of 1500 nM.

On to `CN[C@H]1[C@H](O[C@@H]2c3cc4c(cc3[C@@H]3[C@H]2OC(=O)[C@@]32C(=O)C=Cc3c(C)cc(OC)cc32)[C@@](O)([C@H]2COC(=O)O2)C=C4)O[C@@H](C)[C@H](O)[C@@H]1O`, for which the Kd stood at 307000 nM in assay [8]; 10000 nM in assay [1]; 2180 nM in assay [2]; 33 nM in assay [3]; 20600 nM in assay [4]; 710 nM in assay [5]. For the same compound, the Kd in assay [6] amounted to 12500 nM; in assay [7], 26 nM.

For the compound `CN[C@H]1[C@@H](O[C@@H]2c3cc4ccccc4cc3[C@@H]3[C@H]2C=C[C@@]32C(=O)C=Cc3ccc(OC)cc32)O[C@H](C)[C@H](O)[C@@H]1O`, the Kd in assay [1] worked out at 13000 nM; in assay [2], 800 nM; in assay [3], 130 nM; in assay [4] it was 4100 nM; in assay [5] it was 1700 nM; in assay [6], 1400 nM. Binding in assay [7] was characterised by a dissociation constant (Kd) of 240 nM.

With `CN[C@H]1[C@@H](O[C@H]2c3cc4ccccc4cc3[C@H]3[C@@H]2C=C[C@]32C(=O)C=Cc3ccc(OC)cc32)O[C@H](C)[C@H](O)[C@@H]1O`, the Kd was determined as 10000 nM in assay [1]; 600 nM in assay [2]; 80 nM in assay [3]; 8400 nM in assay [4]; 2100 nM in assay [5]; 220 nM in assay [6]. In assay [7], this compound gave a Kd of 110 nM.

`CN[C@H]1[C@H](O[C@H]2c3cc4ccccc4cc3[C@H]3[C@@H]2C=C[C@]32C(=O)C=Cc3ccc(OC)cc32)O[C@H](C)[C@H](O)[C@@H]1O`: the Kd came to 8200 nM in assay [1]; 400 nM in assay [2]; 200 nM in assay [3]; 14000 nM in assay [4]; 1800 nM in assay [5]; 390 nM in assay [6]. In assay [7], this compound displayed an equilibrium dissociation constant (Kd) of 190 nM.
